# In the supplement of paper PMC10307832:
# Key:
# Assay in all cases: relative viability (nuclei count vs DMSO), 5 days (fraction); higher = more cells survive
# NCI-H1650 = system: NCI-H1650
# How it was run: (§1)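 One day after seeding in 1536-well plates, lung cancer cell lines were dosed by pin tool. Dosing was either single-drug or a fixed anchor-drug dose plus five library-drug doses (not always all listed) in √10 steps. After 5 days, nuclei were stained in one fix-and-stain step and counted on 4× images, and relative viability is the nuclei count of treated wells over that of vehicle wells, given as the median of duplicate plates.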
# CAL-12T = system: CAL-12T
# How it was run: as §1
# NCI-H1915 = system: NCI-H1915
# How it was run: as §1
# H3255 = system: H3255
# How it was run: as §1
# LC-2-ad = system: LC-2-ad
# How it was run: as §1
# NCI-H441 = system: NCI-H441
# How it was run: as §1
# A-427 = system: A-427
# How it was run: as §1
# NCI-H1944 = system: NCI-H1944
# How it was run: as §1
# PC-3 [JPC-3] = system: PC-3 [JPC-3]
# How it was run: as §1
# NCI-H2087 = system: NCI-H2087
# How it was run: as §1
# NCI-H460 = system: NCI-H460
# How it was run: as §1
# NCI-H596 = system: NCI-H596
# How it was run: as §1
# 201T = system: 201T
# How it was run: as §1
# NCI-H650 = system: NCI-H650
# How it was run: as §1
# NCI-H727 = system: NCI-H727
# How it was run: as §1
# BEN = system: BEN
# How it was run: as §1
# LCLC-97TM1 = system: LCLC-97TM1
# How it was run: as §1
# NCI-H661 = system: NCI-H661
# How it was run: as §1
# NCI-H520 = system: NCI-H520
# How it was run: as §1
# ABC-1 = system: ABC-1
# How it was run: as §1
# NCI-H1651 = system: NCI-H1651
# How it was run: as §1
# NCI-H2023 = system: NCI-H2023
# How it was run: as §1
# NCI-H1792 = system: NCI-H1792
# How it was run: as §1
compound,measurement,setting,value
NC(=O)Nc1cc(-c2cccc(F)c2)sc1C(=O)N[C@H]1CCCNC1 [AZD7762] + Cc1nc(Nc2ncc(C(=O)Nc3c(C)cccc3Cl)s2)cc(N2CCN(CCO)CC2)n1 [Dasatinib] (partner 0.075 µM),relative viability,NCI-H1650; first compound 0.01 µM,0.313
same,relative viability,NCI-H1650; first compound 0.03162 µM,0.311
same,relative viability,NCI-H1650; first compound 0.1 µM,0.314
same,relative viability,NCI-H1650; first compound 0.3162 µM,0.264
same,relative viability,NCI-H1650; first compound 1 µM,0.19
same,relative viability,CAL-12T; first compound 0.01 µM,0.637
same,relative viability,CAL-12T; first compound 0.03162 µM,0.463
same,relative viability,CAL-12T; first compound 0.1 µM,0.47
same,relative viability,CAL-12T; first compound 0.3162 µM,0.23
same,relative viability,CAL-12T; first compound 1 µM,0.0827
same,relative viability,NCI-H1915; first compound 0.01 µM,0.32
same,relative viability,NCI-H1915; first compound 0.03162 µM,0.319
same,relative viability,NCI-H1915; first compound 0.1 µM,0.327
same,relative viability,NCI-H1915; first compound 0.3162 µM,0.335
same,relative viability,NCI-H1915; first compound 1 µM,0.272
same,relative viability,H3255; first compound 0.01 µM,0.347
same,relative viability,H3255; first compound 0.03162 µM,0.307
same,relative viability,H3255; first compound 0.1 µM,0.44
same,relative viability,H3255; first compound 0.3162 µM,0.352
same,relative viability,H3255; first compound 1 µM,0.319
same,relative viability,LC-2-ad; first compound 0.01 µM,0.596
same,relative viability,LC-2-ad; first compound 0.03162 µM,0.513
same,relative viability,LC-2-ad; first compound 0.1 µM,0.374
same,relative viability,LC-2-ad; first compound 0.3162 µM,0.343
same,relative viability,LC-2-ad; first compound 1 µM,0.377
same,relative viability,NCI-H441; first compound 0.01 µM,0.773
same,relative viability,NCI-H441; first compound 0.03162 µM,0.68
same,relative viability,NCI-H441; first compound 0.1 µM,0.555
same,relative viability,NCI-H441; first compound 0.3162 µM,0.556
same,relative viability,NCI-H441; first compound 1 µM,0.384
same,relative viability,A-427; first compound 0.01 µM,0.83
same,relative viability,A-427; first compound 0.03162 µM,0.669
same,relative viability,A-427; first compound 0.1 µM,0.812
same,relative viability,A-427; first compound 0.3162 µM,0.663
same,relative viability,A-427; first compound 1 µM,0.218
same,relative viability,NCI-H1944; first compound 0.01 µM,0.231
same,relative viability,NCI-H1944; first compound 0.03162 µM,0.238
same,relative viability,NCI-H1944; first compound 0.1 µM,0.252
same,relative viability,NCI-H1944; first compound 0.3162 µM,0.256
same,relative viability,NCI-H1944; first compound 1 µM,0.232
same,relative viability,PC-3 [JPC-3]; first compound 0.01 µM,1.05
same,relative viability,PC-3 [JPC-3]; first compound 0.03162 µM,0.961
same,relative viability,PC-3 [JPC-3]; first compound 0.1 µM,0.969
same,relative viability,PC-3 [JPC-3]; first compound 0.3162 µM,1.01
same,relative viability,PC-3 [JPC-3]; first compound 1 µM,0.716
same,relative viability,NCI-H2087; first compound 0.01 µM,0.887
same,relative viability,NCI-H2087; first compound 0.03162 µM,0.979
same,relative viability,NCI-H2087; first compound 0.1 µM,0.919
same,relative viability,NCI-H2087; first compound 0.3162 µM,0.773
same,relative viability,NCI-H2087; first compound 1 µM,0.517
same,relative viability,NCI-H460; first compound 0.01 µM,0.531
same,relative viability,NCI-H460; first compound 0.03162 µM,0.578
same,relative viability,NCI-H460; first compound 0.1 µM,0.443
same,relative viability,NCI-H460; first compound 0.3162 µM,0.304
same,relative viability,NCI-H460; first compound 1 µM,0.0715
same,relative viability,NCI-H596; first compound 0.01 µM,0.66
same,relative viability,NCI-H596; first compound 0.03162 µM,0.632
same,relative viability,NCI-H596; first compound 0.1 µM,0.715
same,relative viability,NCI-H596; first compound 0.3162 µM,0.611
same,relative viability,NCI-H596; first compound 1 µM,0.481
same,relative viability,201T; first compound 0.01 µM,0.592
same,relative viability,201T; first compound 0.03162 µM,0.584
same,relative viability,201T; first compound 0.1 µM,0.602
same,relative viability,201T; first compound 0.3162 µM,0.567
same,relative viability,201T; first compound 1 µM,0.473
same,relative viability,NCI-H650; first compound 0.01 µM,0.455
same,relative viability,NCI-H650; first compound 0.03162 µM,0.539
same,relative viability,NCI-H650; first compound 0.1 µM,0.475
same,relative viability,NCI-H650; first compound 0.3162 µM,0.505
same,relative viability,NCI-H650; first compound 1 µM,0.412
same,relative viability,NCI-H727; first compound 0.01 µM,0.374
same,relative viability,NCI-H727; first compound 0.03162 µM,0.422
same,relative viability,NCI-H727; first compound 0.1 µM,0.35
same,relative viability,NCI-H727; first compound 0.3162 µM,0.284
same,relative viability,NCI-H727; first compound 1 µM,0.191
same,relative viability,BEN; first compound 0.01 µM,0.253
same,relative viability,BEN; first compound 0.03162 µM,0.297
same,relative viability,BEN; first compound 0.1 µM,0.282
same,relative viability,BEN; first compound 0.3162 µM,0.301
same,relative viability,BEN; first compound 1 µM,0.328
same,relative viability,LCLC-97TM1; first compound 0.01 µM,0.913
same,relative viability,LCLC-97TM1; first compound 0.03162 µM,0.802
same,relative viability,LCLC-97TM1; first compound 0.1 µM,0.778
same,relative viability,LCLC-97TM1; first compound 0.3162 µM,0.572
same,relative viability,LCLC-97TM1; first compound 1 µM,0.447
same,relative viability,NCI-H661; first compound 0.01 µM,0.753
same,relative viability,NCI-H661; first compound 0.03162 µM,0.808
same,relative viability,NCI-H661; first compound 0.1 µM,0.575
same,relative viability,NCI-H661; first compound 0.3162 µM,0.468
same,relative viability,NCI-H661; first compound 1 µM,0.296
same,relative viability,NCI-H520; first compound 0.01 µM,0.212
same,relative viability,NCI-H520; first compound 0.03162 µM,0.18
same,relative viability,NCI-H520; first compound 0.1 µM,0.192
same,relative viability,NCI-H520; first compound 0.3162 µM,0.16
same,relative viability,NCI-H520; first compound 1 µM,0.189
same,relative viability,ABC-1; first compound 0.01 µM,0.618
same,relative viability,ABC-1; first compound 0.03162 µM,0.586
same,relative viability,ABC-1; first compound 0.1 µM,0.473
same,relative viability,ABC-1; first compound 0.3162 µM,0.413
same,relative viability,ABC-1; first compound 1 µM,0.273
same,relative viability,NCI-H1651; first compound 0.01 µM,0.375
same,relative viability,NCI-H1651; first compound 0.03162 µM,0.358
same,relative viability,NCI-H1651; first compound 0.1 µM,0.386
same,relative viability,NCI-H1651; first compound 0.3162 µM,0.22
same,relative viability,NCI-H1651; first compound 1 µM,0.174
same,relative viability,NCI-H2023; first compound 0.01 µM,0.513
same,relative viability,NCI-H2023; first compound 0.03162 µM,0.425
same,relative viability,NCI-H2023; first compound 0.1 µM,0.328
same,relative viability,NCI-H2023; first compound 0.3162 µM,0.159
same,relative viability,NCI-H2023; first compound 1 µM,0.0942
same,relative viability,NCI-H1792; first compound 0.01 µM,0.814
same,relative viability,NCI-H1792; first compound 0.03162 µM,0.861
same,relative viability,NCI-H1792; first compound 0.1 µM,0.753
same,relative viability,NCI-H1792; first compound 0.3162 µM,0.891
same,relative viability,NCI-H1792; first compound 1 µM,0.873
